Measured values reported in the supplement of paper PMC12076712.

How the values were obtained:
Assay in all cases: pIC50, kinobeads binding competition
UniProt P23443 = biological target: UniProt P23443
Procedure, shortened: (§1)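 Live Jurkat cells were treated with nine compound concentrations (top 30 μM, 1:4 steps) or DMSO for 60 min at 37 °C before lysis. Alternatively, Jurkat lysate or a 1:1:1:1 HEK293/K-562/HepG2/placenta lysate mix was incubated with nine concentrations (top 30 μM, 1:5 steps) for 60 min at 4 °C. Kinobeads-bound proteins were digested and quantified by TMT10 LC-MS/MS. pIC50 came from logistic dose-response fits (R drc package) of fold changes versus DMSO, in biological duplicates.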

TRRAP = TRRAP (UniProt Q9Y4A5); conditions: cell material: Jurkat cells
Procedure, shortened: as §1

RNASEL = RNASEL (UniProt Q05823); conditions: cell material: Jurkat cells
Procedure, shortened: as §1

PRKG2 = biological target: T1, PRKG2 (UniProt Q13237); conditions: cell material: Jurkat lysate
T1 sequence (whole entry): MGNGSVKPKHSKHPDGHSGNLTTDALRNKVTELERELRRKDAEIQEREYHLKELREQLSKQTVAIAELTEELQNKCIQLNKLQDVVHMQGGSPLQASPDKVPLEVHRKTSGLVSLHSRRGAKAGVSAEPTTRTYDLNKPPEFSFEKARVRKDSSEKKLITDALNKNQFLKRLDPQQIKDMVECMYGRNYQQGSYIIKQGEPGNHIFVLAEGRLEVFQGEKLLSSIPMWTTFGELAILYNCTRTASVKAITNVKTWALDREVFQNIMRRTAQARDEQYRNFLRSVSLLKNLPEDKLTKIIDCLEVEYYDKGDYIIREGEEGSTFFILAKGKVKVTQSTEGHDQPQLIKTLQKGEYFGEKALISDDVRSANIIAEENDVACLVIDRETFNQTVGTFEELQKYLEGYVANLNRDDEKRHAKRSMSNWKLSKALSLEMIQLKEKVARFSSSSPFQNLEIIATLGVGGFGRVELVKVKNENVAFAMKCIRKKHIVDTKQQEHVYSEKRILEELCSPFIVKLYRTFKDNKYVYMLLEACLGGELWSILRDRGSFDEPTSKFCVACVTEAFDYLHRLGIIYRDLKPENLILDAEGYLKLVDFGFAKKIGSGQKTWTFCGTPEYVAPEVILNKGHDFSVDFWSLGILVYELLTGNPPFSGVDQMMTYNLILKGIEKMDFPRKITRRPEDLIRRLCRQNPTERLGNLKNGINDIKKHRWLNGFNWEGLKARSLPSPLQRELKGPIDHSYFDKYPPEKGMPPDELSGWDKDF
Procedure, shortened: as §1

CAMK1D = CAMK1D (UniProt Q8IU85)
Procedure, shortened: as §1

TLK2 = TLK2 (UniProt Q86UE8); conditions: cell material: Jurkat cells
Procedure, shortened: as §1

SRPK2 = SRPK2 (UniProt P78362)
Procedure, shortened: as §1

PIK3R4 = PIK3R4 (UniProt Q99570); conditions: cell material: Jurkat cells
Procedure, shortened: as §1

RIOK1 = biological target: T2, RIOK1 (UniProt Q9BRS2)
T2 sequence (whole entry): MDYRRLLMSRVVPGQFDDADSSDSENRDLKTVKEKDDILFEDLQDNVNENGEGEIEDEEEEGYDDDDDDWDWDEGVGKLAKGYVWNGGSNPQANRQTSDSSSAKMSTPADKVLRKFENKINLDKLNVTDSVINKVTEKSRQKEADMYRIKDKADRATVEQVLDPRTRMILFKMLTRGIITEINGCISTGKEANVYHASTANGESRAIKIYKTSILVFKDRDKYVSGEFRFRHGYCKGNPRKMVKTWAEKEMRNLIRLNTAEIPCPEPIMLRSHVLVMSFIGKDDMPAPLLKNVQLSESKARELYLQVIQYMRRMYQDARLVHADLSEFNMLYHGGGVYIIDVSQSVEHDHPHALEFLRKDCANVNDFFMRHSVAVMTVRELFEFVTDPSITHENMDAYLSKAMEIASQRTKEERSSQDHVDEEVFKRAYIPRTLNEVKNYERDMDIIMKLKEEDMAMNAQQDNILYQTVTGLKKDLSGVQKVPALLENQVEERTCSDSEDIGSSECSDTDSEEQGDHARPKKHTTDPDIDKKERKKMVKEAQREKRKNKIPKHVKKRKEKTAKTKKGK
Procedure, shortened: as §1

PRKCH = PRKCH (UniProt P24723)
Procedure, shortened: as §1

RIPK3 = RIPK3 (UniProt Q9Y572)
Procedure, shortened: as §1

UniProt Q9H093 = conditions: cell material: Lysate mix
Procedure, shortened: as §1

ITK = biological target: T3, ITK (UniProt Q08881)
T3 sequence (whole entry): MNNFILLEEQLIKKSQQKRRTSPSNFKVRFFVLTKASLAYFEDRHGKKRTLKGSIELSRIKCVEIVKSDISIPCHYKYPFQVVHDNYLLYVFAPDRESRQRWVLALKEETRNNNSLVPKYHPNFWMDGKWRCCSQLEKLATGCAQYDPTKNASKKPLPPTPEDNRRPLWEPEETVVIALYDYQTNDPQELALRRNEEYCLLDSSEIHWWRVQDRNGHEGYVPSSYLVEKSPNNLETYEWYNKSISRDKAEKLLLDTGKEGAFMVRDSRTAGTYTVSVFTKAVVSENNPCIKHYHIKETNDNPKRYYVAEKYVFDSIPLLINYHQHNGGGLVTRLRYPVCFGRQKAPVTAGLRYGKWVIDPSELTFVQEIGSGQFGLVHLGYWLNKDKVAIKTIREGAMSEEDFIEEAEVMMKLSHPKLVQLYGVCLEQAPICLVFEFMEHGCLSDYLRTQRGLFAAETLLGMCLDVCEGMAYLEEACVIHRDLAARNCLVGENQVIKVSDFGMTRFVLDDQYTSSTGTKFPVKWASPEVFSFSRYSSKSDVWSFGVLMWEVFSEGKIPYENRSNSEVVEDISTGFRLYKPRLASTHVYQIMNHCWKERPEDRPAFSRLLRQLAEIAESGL
Procedure, shortened: as §1

LZK = LZK (UniProt O43283); conditions: cell material: Lysate mix
Procedure, shortened: as §1

TLK1 = TLK1 (UniProt Q9UKI8)
Procedure, shortened: as §1

PRKCH, sequence (P24723 whole entry, looked up): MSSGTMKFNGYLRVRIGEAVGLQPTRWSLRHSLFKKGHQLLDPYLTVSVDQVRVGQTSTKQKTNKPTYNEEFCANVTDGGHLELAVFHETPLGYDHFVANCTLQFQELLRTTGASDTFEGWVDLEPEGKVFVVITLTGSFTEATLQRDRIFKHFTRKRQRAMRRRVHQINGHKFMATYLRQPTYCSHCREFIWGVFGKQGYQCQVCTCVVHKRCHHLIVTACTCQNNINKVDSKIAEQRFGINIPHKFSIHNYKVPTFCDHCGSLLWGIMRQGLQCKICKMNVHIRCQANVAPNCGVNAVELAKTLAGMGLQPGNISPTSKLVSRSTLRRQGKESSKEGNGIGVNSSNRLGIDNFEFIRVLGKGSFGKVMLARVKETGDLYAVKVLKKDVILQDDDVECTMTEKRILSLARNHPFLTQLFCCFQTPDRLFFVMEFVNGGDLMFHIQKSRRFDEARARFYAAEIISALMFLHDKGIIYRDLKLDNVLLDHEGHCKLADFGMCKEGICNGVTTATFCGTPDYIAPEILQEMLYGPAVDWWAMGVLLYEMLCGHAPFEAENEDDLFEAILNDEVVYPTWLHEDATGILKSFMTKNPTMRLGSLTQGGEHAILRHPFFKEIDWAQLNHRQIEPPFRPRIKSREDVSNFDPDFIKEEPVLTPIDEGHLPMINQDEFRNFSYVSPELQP
UniProt P23443, sequence (P23443 whole entry, looked up): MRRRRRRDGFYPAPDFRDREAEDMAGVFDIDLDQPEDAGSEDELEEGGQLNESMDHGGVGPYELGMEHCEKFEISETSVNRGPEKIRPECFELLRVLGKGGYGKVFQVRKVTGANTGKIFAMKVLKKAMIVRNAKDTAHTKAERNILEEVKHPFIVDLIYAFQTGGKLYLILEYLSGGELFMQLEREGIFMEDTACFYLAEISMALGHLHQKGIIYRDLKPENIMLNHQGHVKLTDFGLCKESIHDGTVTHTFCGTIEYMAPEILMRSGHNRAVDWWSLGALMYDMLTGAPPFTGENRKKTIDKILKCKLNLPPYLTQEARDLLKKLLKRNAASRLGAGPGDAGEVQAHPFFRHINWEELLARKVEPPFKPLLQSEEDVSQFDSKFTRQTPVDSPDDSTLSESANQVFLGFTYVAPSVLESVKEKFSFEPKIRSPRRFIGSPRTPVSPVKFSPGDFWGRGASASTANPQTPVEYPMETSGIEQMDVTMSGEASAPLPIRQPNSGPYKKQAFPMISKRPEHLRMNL
CAMK1D, sequence (Q8IU85 whole entry, looked up): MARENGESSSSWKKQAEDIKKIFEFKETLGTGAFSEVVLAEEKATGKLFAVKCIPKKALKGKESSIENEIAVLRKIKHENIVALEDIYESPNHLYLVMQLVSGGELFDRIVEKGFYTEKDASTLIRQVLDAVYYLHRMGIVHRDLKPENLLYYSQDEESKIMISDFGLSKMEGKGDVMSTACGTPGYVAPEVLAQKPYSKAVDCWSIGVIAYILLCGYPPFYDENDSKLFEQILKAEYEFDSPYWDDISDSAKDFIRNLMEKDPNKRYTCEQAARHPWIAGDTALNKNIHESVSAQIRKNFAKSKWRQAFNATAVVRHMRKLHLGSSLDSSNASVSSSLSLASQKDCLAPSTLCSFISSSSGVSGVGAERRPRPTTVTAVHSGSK
RIPK3, sequence (Q9Y572 whole entry, looked up): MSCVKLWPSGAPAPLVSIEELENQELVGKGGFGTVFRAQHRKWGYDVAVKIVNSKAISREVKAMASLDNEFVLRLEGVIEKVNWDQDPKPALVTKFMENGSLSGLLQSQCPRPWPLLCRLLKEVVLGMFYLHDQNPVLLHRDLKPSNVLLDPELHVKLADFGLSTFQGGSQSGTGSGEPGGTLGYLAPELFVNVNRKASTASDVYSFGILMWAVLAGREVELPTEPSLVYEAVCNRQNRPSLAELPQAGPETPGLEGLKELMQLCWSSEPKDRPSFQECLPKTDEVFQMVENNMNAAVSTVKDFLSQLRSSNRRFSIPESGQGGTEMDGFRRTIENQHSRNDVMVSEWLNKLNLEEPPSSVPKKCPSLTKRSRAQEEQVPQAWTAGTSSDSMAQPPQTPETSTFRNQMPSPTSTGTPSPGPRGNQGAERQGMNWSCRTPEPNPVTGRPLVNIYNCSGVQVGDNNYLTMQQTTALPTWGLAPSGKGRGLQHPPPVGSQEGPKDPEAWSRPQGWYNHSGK
SRPK2, sequence (P78362 whole entry, looked up): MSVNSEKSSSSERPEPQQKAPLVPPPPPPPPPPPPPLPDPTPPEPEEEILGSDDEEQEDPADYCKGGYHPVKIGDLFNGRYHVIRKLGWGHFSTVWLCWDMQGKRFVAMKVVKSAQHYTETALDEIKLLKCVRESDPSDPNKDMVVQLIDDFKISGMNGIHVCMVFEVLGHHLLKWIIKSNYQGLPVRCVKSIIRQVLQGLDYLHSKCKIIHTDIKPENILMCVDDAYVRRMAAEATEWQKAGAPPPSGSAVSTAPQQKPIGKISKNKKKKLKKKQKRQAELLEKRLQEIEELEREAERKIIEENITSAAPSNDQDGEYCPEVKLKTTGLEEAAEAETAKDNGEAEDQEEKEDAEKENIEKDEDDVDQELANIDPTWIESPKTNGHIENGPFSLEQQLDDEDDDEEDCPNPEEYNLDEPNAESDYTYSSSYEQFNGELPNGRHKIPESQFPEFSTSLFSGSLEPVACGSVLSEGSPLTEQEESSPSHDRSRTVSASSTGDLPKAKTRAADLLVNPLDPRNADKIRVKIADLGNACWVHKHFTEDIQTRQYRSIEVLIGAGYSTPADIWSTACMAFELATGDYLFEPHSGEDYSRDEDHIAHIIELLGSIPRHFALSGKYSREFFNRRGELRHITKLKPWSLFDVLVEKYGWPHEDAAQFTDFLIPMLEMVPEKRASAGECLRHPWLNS
TLK1, sequence (Q9UKI8 whole entry): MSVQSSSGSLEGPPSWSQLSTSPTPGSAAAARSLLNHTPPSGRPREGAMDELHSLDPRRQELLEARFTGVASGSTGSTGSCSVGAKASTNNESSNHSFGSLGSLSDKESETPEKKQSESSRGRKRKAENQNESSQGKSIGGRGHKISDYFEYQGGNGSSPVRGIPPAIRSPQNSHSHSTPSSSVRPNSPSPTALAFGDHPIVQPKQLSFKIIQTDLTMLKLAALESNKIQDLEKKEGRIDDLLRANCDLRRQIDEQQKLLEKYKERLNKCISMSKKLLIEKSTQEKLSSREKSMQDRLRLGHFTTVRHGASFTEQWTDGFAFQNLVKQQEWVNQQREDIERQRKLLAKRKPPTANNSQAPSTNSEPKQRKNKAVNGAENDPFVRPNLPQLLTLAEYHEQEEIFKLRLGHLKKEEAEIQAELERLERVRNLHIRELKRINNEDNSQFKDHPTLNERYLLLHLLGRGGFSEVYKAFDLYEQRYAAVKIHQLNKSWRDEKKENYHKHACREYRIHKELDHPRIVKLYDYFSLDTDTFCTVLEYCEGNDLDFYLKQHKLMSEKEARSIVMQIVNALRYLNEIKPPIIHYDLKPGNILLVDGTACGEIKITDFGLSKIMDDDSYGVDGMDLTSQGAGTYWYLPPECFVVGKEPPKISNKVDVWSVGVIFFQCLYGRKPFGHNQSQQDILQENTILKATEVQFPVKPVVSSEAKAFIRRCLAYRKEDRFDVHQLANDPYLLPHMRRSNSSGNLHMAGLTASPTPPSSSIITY
RNASEL, sequence (Q05823 whole entry): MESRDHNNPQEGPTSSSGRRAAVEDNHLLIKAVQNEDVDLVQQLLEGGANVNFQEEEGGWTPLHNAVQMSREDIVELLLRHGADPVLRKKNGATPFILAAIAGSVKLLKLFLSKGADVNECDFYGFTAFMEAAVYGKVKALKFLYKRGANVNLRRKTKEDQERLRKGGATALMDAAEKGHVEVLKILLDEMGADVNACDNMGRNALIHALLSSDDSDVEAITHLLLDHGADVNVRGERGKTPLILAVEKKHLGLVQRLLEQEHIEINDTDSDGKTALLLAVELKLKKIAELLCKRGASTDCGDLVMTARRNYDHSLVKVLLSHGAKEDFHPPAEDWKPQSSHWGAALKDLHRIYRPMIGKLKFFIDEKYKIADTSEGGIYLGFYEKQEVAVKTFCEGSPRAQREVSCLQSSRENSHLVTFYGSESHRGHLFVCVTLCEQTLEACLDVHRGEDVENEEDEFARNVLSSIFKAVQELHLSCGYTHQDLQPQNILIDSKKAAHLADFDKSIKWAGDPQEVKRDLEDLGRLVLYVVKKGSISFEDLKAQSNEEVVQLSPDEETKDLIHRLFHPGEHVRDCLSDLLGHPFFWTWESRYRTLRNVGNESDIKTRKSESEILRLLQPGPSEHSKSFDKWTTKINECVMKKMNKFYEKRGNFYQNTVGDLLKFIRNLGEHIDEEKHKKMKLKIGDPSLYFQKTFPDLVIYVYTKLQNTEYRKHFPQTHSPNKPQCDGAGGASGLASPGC
UniProt Q9H093, sequence (Q9H093 whole entry): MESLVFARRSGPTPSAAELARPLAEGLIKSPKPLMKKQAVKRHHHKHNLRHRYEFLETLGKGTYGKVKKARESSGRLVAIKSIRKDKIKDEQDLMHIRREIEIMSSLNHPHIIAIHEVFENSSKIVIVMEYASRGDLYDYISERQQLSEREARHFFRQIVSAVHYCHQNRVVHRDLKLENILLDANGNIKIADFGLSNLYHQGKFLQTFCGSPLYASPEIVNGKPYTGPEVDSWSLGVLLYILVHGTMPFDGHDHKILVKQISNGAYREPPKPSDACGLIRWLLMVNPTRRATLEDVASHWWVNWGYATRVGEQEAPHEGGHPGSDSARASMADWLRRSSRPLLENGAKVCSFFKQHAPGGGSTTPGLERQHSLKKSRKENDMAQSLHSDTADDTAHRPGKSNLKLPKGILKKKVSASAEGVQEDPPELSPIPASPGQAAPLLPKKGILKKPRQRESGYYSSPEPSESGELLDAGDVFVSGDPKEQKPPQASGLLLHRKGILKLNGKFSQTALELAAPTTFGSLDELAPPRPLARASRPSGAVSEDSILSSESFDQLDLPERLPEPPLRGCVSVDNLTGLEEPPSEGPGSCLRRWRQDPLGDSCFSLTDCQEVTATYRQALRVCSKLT

| pIC50 (UniProt Q9H093) | pIC50 (LZK) | Compound | pIC50 (UniProt P23443; cell material: Jurkat lysate) | pIC50 (TRRAP) | pIC50 (RNASEL) | pIC50 (PRKG2) | pIC50 (CAMK1D; cell material: Jurkat cells) | pIC50 (TLK2) | pIC50 (SRPK2; cell material: Jurkat cells) | pIC50 (SRPK2; cell material: Jurkat lysate) | pIC50 (PIK3R4) | pIC50 (RIOK1; cell material: Jurkat cells) | pIC50 (RIOK1; cell material: Jurkat lysate) | pIC50 (PRKCH; cell material: Jurkat lysate) | pIC50 (RIPK3; cell material: Jurkat lysate) | pIC50 (ITK; cell material: Jurkat cells) | pIC50 (ITK; cell material: Jurkat lysate) | also measured |
| --- | --- | --- | --- | --- | --- | --- | --- | --- | --- | --- | --- | --- | --- | --- | --- | --- | --- | --- |
| < 4.52 |  | O=C(NCCNC(=O)c1cc(Nc2cc(C3CC3)[nH]n2)nc(N2CCN(Cc3ccc(S(=O)(=O)F)cc3)CC2)n1)OC1CC/C=C/CCC1 (stereo not given) | < 4.52 | < 4.52 | < 4.52 | < 4.52 | 5.82 | < 4.52 | < 4.52 | < 4.52 | < 4.52 | < 4.52 | < 4.52 | < 4.52 | < 4.52 | 6.7 | < 4.52 | pIC50 (PRKCH; cell material: Jurkat cells): < 4.52 |
| < 4.52 | < 4.52 | Cc1cc(Nc2cc(C(=O)NCCNC(=O)OC3CC/C=C/CCC3)nc(N3CCN(Cc4ccc(S(=O)(=O)F)cc4)CC3)n2)n[nH]1 (stereo not given) |  |  |  |  |  |  |  |  |  |  |  |  |  |  |  |  |
|  | 5.12 | CCNC(=O)c1cc(Nc2cc(C3CC3)[nH]n2)nc(N2CCN(Cc3ccc(S(=O)(=O)F)cc3)CC2)n1 |  |  |  |  |  |  |  |  |  |  |  |  |  |  |  |  |
|  |  | CCNC(=O)c1cc(Nc2cc(C)[nH]n2)nc(N2CCN(Cc3ccc(S(=O)(=O)F)cc3)CC2)n1 |  |  |  |  |  |  |  |  |  |  |  |  |  |  |  | pIC50 (TLK1; cell material: Lysate mix): 4.92 |
|  |  | C#CCNC(=O)c1cc(Nc2cc(C3CC3)[nH]n2)nc(N2CCN(Cc3ccc(S(=O)(=O)F)cc3)CC2)n1 | < 4.52 | < 4.52 | < 4.52 | < 4.52 | 5.94 | < 4.52 | < 4.52 | < 4.52 | 4.69 | < 4.52 | < 4.52 | < 4.52 | 4.67 | 6.78 | 5.4 | pIC50 (UniProt P23443; cell material: Jurkat cells): 5.19; pIC50 (CAMK1D; cell material: Jurkat lysate): < 4.52; pIC50 (RIPK3; cell material: Jurkat cells): 4.85; pIC50 (TLK1; cell material: Jurkat cells): 4.82 |
